Our source for the pest or weed control values is patent publication US10173971B2, “Picolinamides with fungicidal activity” (DOW AGROSCIENCES LLC, priority 2014, dated 2019).

SMILES strings stand for the structures. Read-outs that look alike come from different tables or passages of the source.

For one experiment, the system named is Zymoseptoria tritici. Nature of the experiment: Fungicidal activity: leaf blotch of wheat (SEPTTR), wheat seedlings, booth sprayer to run-off or track spray. The class given is in vivo. The conditions noted are these: for pest or weed control at 121.5 g/ha: Low-Volume Cereal Activity at 121.5 g/H; for pest or weed control at 100 ppm: High-Volume Cereal Activity at 100 ppm.

The subject of a further experiment is Puccinia triticina. Nature of the experiment: Fungicidal activity: wheat brown rust (PUCCRT), wheat seedlings, booth sprayer to run-off or track spray. The class given is in vivo. As to conditions: for pest or weed control at 121.5 g/ha: Low-Volume Cereal Activity at 121.5 g/H; for pest or weed control at 100 ppm: High-Volume Cereal Activity at 100 ppm.
[1] abbreviates: 24 h, 1 Day Protectant, read-out: SEPTTR 1DP.
Setting [2] is: 72 h, 3 Day Curative, read-out: SEPTTR 3DC.
Setting [3] is: 24 h, 1 Day Protectant, read-out: PUCCRT 1DP.
[4] abbreviates: 72 h, 3 Day Curative, read-out: PUCCRT 3DC.
The mark [5] stands for this setting: 3DC (Day Curative), read-out: SEPTTR 3DC.
[6] abbreviates: 3DC (Day Curative), read-out: PUCCRT 3DC.

On to `CCCC[C@@H]([C@H](C)OC(=O)[C@H](C)NC(=O)c1nccc(OC)c1OCOC(C)=O)[C@H](CC)Oc1ccccc1` [compound 188], for which the pest or weed control at 121.5 g/ha in the experiment with Zymoseptoria tritici (setting [1]), in the experiment on Zymoseptoria tritici (setting [2]), in the experiment on Puccinia triticina (setting [3]) and in the experiment with Puccinia triticina (setting [4]) was 80 to 100% in each case.
`CCOCC(=O)OCOc1c(OC)ccnc1C(=O)N[C@@H](C)C(=O)O[C@@H](C)[C@@H](COCc1ccc(F)cc1)Cc1ccc(F)cc1` [compound 253]: the pest or weed control at 121.5 g/ha is 80 to 100% with Zymoseptoria tritici (setting [1]), 0 to 80% in the experiment with Zymoseptoria tritici (setting [2]), 80 to 100% with Puccinia triticina (setting [3]) and 0 to 80% in the experiment with Puccinia triticina (setting [4]).
As to `CC[C@H](NC(=O)c1nccc(OC)c1OC(C)=O)C(=O)OC(C)C(Cc1ccccc1)Cc1ccccc1` (stereo partly drawn) [compound 262], the pest or weed control at 121.5 g/ha in the experiment with Zymoseptoria tritici (setting [1]) was 0 to 80%; in the experiment on Puccinia triticina (setting [3]), 80 to 100%; with Puccinia triticina (setting [4]), 0 to 80%.
As for `C=C[C@H](Cc1ccc(C(F)(F)F)cc1)[C@@H](Cc1ccc(F)cc1)[C@H](C)OC(=O)[C@H](C)NC(=O)c1nccc(OC)c1OC(C)=O` [compound 179], the pest or weed control at 121.5 g/ha in the experiment with Zymoseptoria tritici (setting [1]) was 0 to 80%; in the experiment with Zymoseptoria tritici (setting [2]), 80 to 100%; in the experiment on Puccinia triticina (setting [3]) it was 80 to 100%.
With `COc1ccc(CC(Cc2ccc(OC)cc2)[C@H](C)OC(=O)[C@H](C)NC(=O)c2nccc(OC)c2O)cc1` [compound 154], the pest or weed control at 100 ppm in the experiment with Zymoseptoria tritici (setting [1]) and with Puccinia triticina (setting [3]) was 80 to 100% throughout.
As for `CC[C@H](Cc1ccccc1)[C@@H](Cc1ccc(OC(F)(F)F)cc1)[C@H](C)OC(=O)[C@H](C)NC(=O)c1nccc(OC)c1O` [compound 112], the pest or weed control at 100 ppm with Zymoseptoria tritici (setting [1]) and with Puccinia triticina (setting [3]) was 0 to 80% throughout.
As to `COc1ccnc(C(=O)N[C@@H](C)C(=O)O[C@@H](C)[C@@H](COCCC(C)C)Cc2ccc(F)cc2)c1OCOC(C)=O` [compound 251], the pest or weed control at 121.5 g/ha with Zymoseptoria tritici (setting [1]) fell in the range of 0 to 80%; with Zymoseptoria tritici (setting [2]), 80 to 100%; in the experiment with Puccinia triticina (setting [3]) it was 80 to 100%; with Puccinia triticina (setting [4]), 0 to 80%.
Regarding `COc1ccnc(C(=O)N[C@H](C(=O)OC(C)C(Cc2ccccc2)Cc2ccccc2)C(C)C)c1O` (stereo partly drawn) [compound 148], the pest or weed control at 100 ppm in the experiment on Zymoseptoria tritici (setting [1]) and with Puccinia triticina (setting [3]) was 0 to 80% in each case.
Take `CCCOC[C@@H](Cc1ccc(OC)c(Cc2ccccc2)c1)[C@H](C)OC(=O)[C@H](C)NC(=O)c1nccc(OC)c1O` [compound 145]: the pest or weed control at 100 ppm in the experiment with Zymoseptoria tritici (setting [1]) lay in the range of 80 to 100%; in the experiment on Zymoseptoria tritici (setting [5]) it was 0 to 80%; with Puccinia triticina (setting [3]), 0 to 80%.
Turning to `CCC[C@@H](Cc1ccccc1)[C@H](C)OC(=O)[C@H](C)NC(=O)c1nccc(OC)c1O` [compound 113], the pest or weed control at 100 ppm in the experiment on Zymoseptoria tritici (setting [1]) lay within 0 to 80%; with Zymoseptoria tritici (setting [5]), 80 to 100%; in the experiment with Puccinia triticina (setting [3]) it was 80 to 100%; in the experiment on Puccinia triticina (setting [6]), 80 to 100%.
`COc1ccnc(C(=O)N[C@@H](C)C(=O)O[C@@H](C)[C@@H](COCCC(C)C)Cc2ccccc2)c1OCOC(C)=O` [compound 252]: the pest or weed control at 121.5 g/ha in the experiment with Zymoseptoria tritici (setting [1]), with Zymoseptoria tritici (setting [2]), with Puccinia triticina (setting [3]) and in the experiment with Puccinia triticina (setting [4]) was 80 to 100% throughout.
As for `CC[C@H](CC1CC1)[C@@H](Cc1ccccc1)[C@H](C)OC(=O)[C@H](C)NC(=O)c1nccc(OC)c1O` [compound 102], the pest or weed control at 100 ppm in the experiment on Zymoseptoria tritici (setting [1]) lay within 0 to 80%; with Zymoseptoria tritici (setting [5]), 80 to 100%; with Puccinia triticina (setting [3]), 80 to 100%; with Puccinia triticina (setting [6]) it was 80 to 100%.
Turning to `COc1ccnc(C(=O)N[C@@H](C)C(=O)O[C@@H](C)[C@H](Cc2ccc(F)cc2)C(C)(C)OCc2ccccc2)c1OCOC(C)=O` [compound 241], the pest or weed control at 121.5 g/ha was 80 to 100% in the experiment on Zymoseptoria tritici (setting [1]), 80 to 100% in the experiment with Zymoseptoria tritici (setting [2]), 80 to 100% with Puccinia triticina (setting [3]) and 0 to 80% in the experiment with Puccinia triticina (setting [4]).
For the compound `COC(=O)[C@@H](Cc1ccccc1)[C@H](C)OC(=O)[C@H](C)NC(=O)c1nccc(OC)c1O` [compound 114], the pest or weed control at 100 ppm in the experiment with Zymoseptoria tritici (setting [5]), in the experiment on Puccinia triticina (setting [3]) and in the experiment on Puccinia triticina (setting [6]) was 0 to 80% in each case.
With `COc1cccc(CC(Cc2cccc(OC)c2)[C@H](C)OC(=O)[C@H](C)NC(=O)c2nccc(OC)c2OC(C)=O)c1` [compound 270], the pest or weed control at 121.5 g/ha in the experiment with Zymoseptoria tritici (setting [1]) is 0 to 80%; with Puccinia triticina (setting [3]), 80 to 100%; with Puccinia triticina (setting [4]) it was 0 to 80%.
As for `COc1ccnc(C(=O)N[C@@H](C)C(=O)O[C@@H](C)[C@H](Cc2ccccc2)c2ccccc2)c1OC(C)=O` [compound 196], the pest or weed control at 121.5 g/ha in the experiment with Zymoseptoria tritici (setting [1]) fell in the range of 80 to 100%; with Zymoseptoria tritici (setting [2]), 80 to 100%; in the experiment with Puccinia triticina (setting [3]), 80 to 100%; with Puccinia triticina (setting [4]), 0 to 80%.
As to `CCOCC(=O)OCOc1c(OC)ccnc1C(=O)N[C@@H](C)C(=O)O[C@@H](C)[C@H](Cc1ccccc1)C(C)(C)OCc1ccccc1` [compound 236], the pest or weed control at 121.5 g/ha in the experiment on Zymoseptoria tritici (setting [1]) fell in the range of 80 to 100%; in the experiment on Zymoseptoria tritici (setting [2]), 0 to 80%; in the experiment with Puccinia triticina (setting [3]), 80 to 100%; with Puccinia triticina (setting [4]), 0 to 80%.
As to `CCCC[C@@H]([C@H](C)OC(=O)[C@H](C)NC(=O)c1nccc(OC)c1OCOC(C)=O)[C@@H](CC)Oc1ccccc1` [compound 189], the pest or weed control at 121.5 g/ha with Zymoseptoria tritici (setting [1]) is 80 to 100%; in the experiment on Zymoseptoria tritici (setting [2]), 0 to 80%; in the experiment with Puccinia triticina (setting [3]), 80 to 100%; in the experiment with Puccinia triticina (setting [4]), 80 to 100%.
Take `COc1ccnc(C(=O)N[C@@H](C)C(=O)O[C@@H](C)[C@H](Cc2ccccc2)C(C)(C)Oc2ccc(Cl)cc2Cl)c1OCOC(C)=O` [compound 254]: the pest or weed control at 121.5 g/ha lay within 80 to 100% in the experiment with Zymoseptoria tritici (setting [1]), 80 to 100% with Zymoseptoria tritici (setting [2]), 80 to 100% in the experiment on Puccinia triticina (setting [3]) and 0 to 80% in the experiment with Puccinia triticina (setting [4]).
Consider `COc1ccnc(C(=O)N[C@@H](C)C(=O)O[C@@H](C)[C@H](Cc2ccc(Cl)cc2)c2ccccc2)c1OC(C)=O` [compound 201], for which the pest or weed control at 121.5 g/ha in the experiment on Zymoseptoria tritici (setting [1]) lay within 80 to 100%; with Zymoseptoria tritici (setting [2]), 0 to 80%; in the experiment with Puccinia triticina (setting [3]), 0 to 80%; with Puccinia triticina (setting [4]), 0 to 80%.
For `COc1ccnc(C(=O)N[C@@H](C)C(=O)O[C@@H](C)[C@@H](COCCC(C)C)Cc2ccc(F)cc2)c1O` [compound 140], the pest or weed control at 100 ppm in the experiment on Zymoseptoria tritici (setting [1]), in the experiment with Zymoseptoria tritici (setting [5]) and in the experiment on Puccinia triticina (setting [6]) was 0 to 80% each time.
With `CCCOC[C@@H](Cc1ccccc1)[C@H](C)OC(=O)C(C)(C)NC(=O)c1nccc(OC)c1O` [compound 99], the pest or weed control at 100 ppm with Zymoseptoria tritici (setting [5]), with Puccinia triticina (setting [3]) and with Puccinia triticina (setting [6]) was 0 to 80% each time.
As for `COc1ccnc(C(=O)N[C@@H](C)C(=O)OC(C)C(Cc2cccc(F)c2)Cc2cccc(F)c2)c1OCOC(C)=O` (stereo partly drawn) [compound 267], the pest or weed control at 121.5 g/ha in the experiment on Zymoseptoria tritici (setting [1]), in the experiment with Zymoseptoria tritici (setting [2]) and in the experiment on Puccinia triticina (setting [3]) was 0 to 80% in each case.
In the case of `CC[C@H](NC(=O)c1nccc(OC)c1OCOC(C)=O)C(=O)O[C@@H](C)C(Cc1ccc(OC)cc1)Cc1ccc(OC)cc1` [compound 277], the pest or weed control at 121.5 g/ha in the experiment on Zymoseptoria tritici (setting [1]) fell in the range of 80 to 100%; in the experiment with Puccinia triticina (setting [3]) it was 80 to 100%; in the experiment with Puccinia triticina (setting [4]), 0 to 80%.
